Assay results as given in US20030180385A1 (priority 2002, published 2003).
Read-outs that look alike come from different tables or passages of the source. Marks after values point to notes of the source that are not given here.

Assays:
barley seeds = settings: in vivo
Fusarium graminearum = assay type: cell-based; settings: for % of Fusarium graminearum: barley var. Lacey
bacteria = assay type: cell-based
[1] = 8 hours steeping
[2] = wheat seeds; 1% concentration; cited from earlier work
[3] = DON variation during the malting process; settings: for % DON reduction: H process
Description: The goal of this experiment was to follow the main steps of malt production for DON increase or decrease when barley seeds were submitted to the hypochlorite process during the first steeping, compared with the same seed not submitted to the hypochlorite process. Two samples of 1000 grams of barley seeds infected with 3.2 ppm of DON were malted and their DON contents were measured during the following steps:
1. On 50 grams of seeds just after the first steeping (7 hours steep)
2. On 50 grams of seeds just after the second steeping (5 hours steep)
3. On 50 grams of seeds on the second day of malting (half malting)
4. On 50 grams of seeds on the fourth day of malting (end of malting)
5. On 50 grams of seeds after the fist step of kilning (6 hours at 45° C.)
6. On 50 grams of seeds after the second step of kilning (3 hours at 65° C.)
7. On 50 grams of seeds after the third step of kilning (2 hours at 85° C.)
8. Control (dry seeds without treatment).

Fusarium = settings: literature reports; cited from earlier work
Alternaria spp. = assay type: cell-based; settings: barley var. Lacey
[4] = Table 6, means of 50 seeds plated in ¼ PDA medium

For `O=C([O-])O.[Na+]` [NaHCO3 (0.25%), sodium bicarbonate], the “% Germination” value (barley seeds) was 90%, the “% Fusarium” value (Fusarium graminearum; [4]) was 52% and the “% Bacteria” value (bacteria) was 70%.
With `CCO` [Alco. 10%, Alcohol] the “Germin. (%)” value (barley seeds) was 2%, the “Fusarium (%)” value (Fusarium graminearum) was 44* % and the “Bacteria (%)” value (bacteria) was 100%.
With `CCO` [Alco. 1%, Alcohol] the “Germin. (%)” value (barley seeds) was 72%, the “Fusarium (%)” value (Fusarium graminearum) was 94% and the “Bacteria (%)” value (bacteria) was 94%.
For `CC(=O)O` [Ac. Ac. Glacial 0.25%, glacial acetic acid], the “Germin. (%)” value (barley seeds) was 64%, the “Fusarium (%)” value (Fusarium graminearum; Table 4, 8 hours steeping) was 2% and the “Bacteria (%)” value (bacteria) was 6%. The “Total % of DON reduction” value ([1]; Table 4) was 71.1% and the DON ([1]; Table 4, dry seeds 9.7) was 2.8 µg/mL.
In the case of `O=C([O-])O.[Na+]` [NaHCO3 (0.5%), sodium bicarbonate], the “% Germination” value (barley seeds) is reported as 88%, the “% Fusarium” value (Fusarium graminearum; [4]) is reported as 72% and the “% Bacteria” value (bacteria) is reported as 84%.
In the case of `O=P([O-])([O-])O.[Na+].[Na+]` [Na2HPO4 (0.25%), sodium phosphate dibasic], the “% Germination” value (barley seeds) is reported as 98%, the “% Fusarium” value (Fusarium graminearum; [4]) is reported as 68% and the “% Bacteria” value (bacteria) is reported as 68%.
For `OCl` [sodium hypochlorite], the “increase of the level of the toxin (DON)” value [2] is listed as 24% and the “level of the toxin (DON) after treatment” value [2] is listed as 1.24 ppm.
With `[K+].[OH-]` [KOH (0.5%), potassium hydroxide] the “% Germination” value (barley seeds) was 96%, the “% Fusarium” value (Fusarium graminearum) was 44% and the “% Bacteria” value (bacteria) was 44%.
For `CC(=O)OO` [Ac. Perac. 1.0%, peracetic acid], the “Germin. (%)” value (barley seeds) was 0%, the “Fusarium (%)” value (Fusarium graminearum) was 4% and the “Bacteria (%)” value (bacteria) was 4%.
For `CC(=O)OO` [Ac. Perac. 2.0%, peracetic acid], the “Germin. (%)” value (barley seeds) was 0%, the “Fusarium (%)” value (Fusarium graminearum) was 2% and the “Bacteria (%)” value (bacteria) was 0%.
In the case of `[Na+].[OH-]` [NaOH 1.0%, sodium hydroxide], the “Germin. (%)” value (barley seeds) is reported as 66%, the “Fusarium (%)” value (Fusarium graminearum) is reported as 2% and the “Bacteria (%)” value (bacteria) is reported as 6%.
In the case of `CC(=O)OO` [Ac. Perac. 0.25%, peracetic acid], the “Germin. (%)” value (barley seeds) is reported as 76%, the “Fusarium (%)” value (Fusarium graminearum) is reported as 2% and the “Bacteria (%)” value (bacteria) is reported as 62%.
In the case of `CC(=O)OO` [Ac. Perac. 0.1%, peracetic acid], the “Germin. (%)” value (barley seeds) is reported as 94%, the “Fusarium (%)” value (Fusarium graminearum) is reported as 56% and the “Bacteria (%)” value (bacteria) is reported as 48%.
With `[Cl-].[Na+]` [Salt 1%, NaCl] the “Germin. (%)” value (barley seeds) was 72%, the “Fusarium (%)” value (Fusarium graminearum; Table 3, 8 hours steeping) was 90% and the “Bacteria (%)” value (bacteria) was 76%. For the same compound, the “Total % of DON reduction” value ([1]; Table 3) was 71% and the DON ([1]; Table 3, dry seeds 10.9) was 3.1 µg/mL.
With `OO` [H2O2 3.0%, peroxide] the “Germin. (%)” value (barley seeds) was 92%, the “Fusarium (%)” value (Fusarium graminearum) was 20% and the “Bacteria (%)” value (bacteria) was 62%.
With `CCOC(C)=O` [Eth. Ac. 1%, Ethyl Acetate] the “Germin. (%)” value (barley seeds) was 6%, the “Fusarium (%)” value (Fusarium graminearum; Table 3, 8 hours steeping) was 88% and the “Bacteria (%)” value (bacteria) was 90%. For the same compound, the “Total % of DON reduction” value ([1]; Table 3) was 68% and the DON ([1]; Table 3, dry seeds 10.9) was 3.5 µg/mL.
With `[Na+].[OH-]` [NaOH 0.25%, sodium hydroxide] the “% Germination” value (barley seeds) was 94%, the “Germin. (%)” value (barley seeds) was 96% and the “% Fusarium” value (Fusarium graminearum) was 44%. For the same compound, the “Fusarium (%)” value (Fusarium graminearum) was 88%, the “% Bacteria” value (bacteria) was 44% and the “Bacteria (%)” value (bacteria) was 80%.
With `CC(=O)O` [Ac. Ac. Glacial 1.0, glacial acetic acid] the “Germin. (%)” value (barley seeds) was 0%, the “Fusarium (%)” value (Fusarium graminearum; Table 4, 8 hours steeping) was 2% and the “Bacteria (%)” value (bacteria) was 0%. For the same compound, the “Total % of DON reduction” value ([1]; Table 4) was 71.1% and the DON ([1]; Table 4, dry seeds 9.7) was 2.8 µg/mL.
In the case of `CCOC(C)=O` [Eth. Ac. 10%, Ethyl Acetate], the “Germin. (%)” value (barley seeds) is reported as 0%, the “Fusarium (%)” value (Fusarium graminearum; Table 3, 8 hours steeping) is reported as 0% and the “Bacteria (%)” value (bacteria) is reported as 4%. The “Total % of DON reduction” value ([1]; Table 3) was 70% and the DON ([1]; Table 3, dry seeds 10.9) was 3.3 µg/mL.
With `[Na+].[OH-]` [NaOH 0.5%, sodium hydroxide] the “% Germination” value (barley seeds) was 96%, the “Germin. (%)” value (barley seeds) was 88% and the “% Fusarium” value (Fusarium graminearum) was 40%. The “Fusarium (%)” value (Fusarium graminearum) was 68%, the “% Bacteria” value (bacteria) was 8% and the “Bacteria (%)” value (bacteria) was 50%.
In the case of `[Cl-].[Na+]` [Salt 5%, NaCl], the “Germin. (%)” value (barley seeds) is reported as 80%, the “Fusarium (%)” value (Fusarium graminearum; Table 3, 8 hours steeping) is reported as 84% and the “Bacteria (%)” value (bacteria) is reported as 78%. The “Total % of DON reduction” value ([1]; Table 3) was 77% and the DON ([1]; Table 3, dry seeds 10.9) was 2.5 µg/mL.
For `CC(=O)OO` [Ac. Perac. 0.5%, peracetic acid], the “Germin. (%)” value (barley seeds) was 28%, the “Fusarium (%)” value (Fusarium graminearum) was 4% and the “Bacteria (%)” value (bacteria) was 28%.
In the case of `OO` [H2O2 1.0%, peroxide], the “Germin. (%)” value (barley seeds) is reported as 94%, the “Fusarium (%)” value (Fusarium graminearum) is reported as 38% and the “Bacteria (%)” value (bacteria) is reported as 47%.
With `[K+].[OH-]` [KOH (0.25%), potassium hydroxide] the “% Germination” value (barley seeds) was 94%, the “% Fusarium” value (Fusarium graminearum) was 76% and the “% Bacteria” value (bacteria) was 82%.
In the case of `CC(=O)O` [Ac. Ac. Glacial 0.5, glacial acetic acid], the “Germin. (%)” value (barley seeds) is reported as 8%, the “Fusarium (%)” value (Fusarium graminearum; Table 4, 8 hours steeping) is reported as 4% and the “Bacteria (%)” value (bacteria) is reported as 2%. For the same compound, the “Total % of DON reduction” value ([1]; Table 4) was 62.9% and the DON ([1]; Table 4, dry seeds 9.7) was 3.6 µg/mL.
In the case of `OCl` [hypochlorite], the “DON levels on "H" process (b)” value ([3]; 1. After the first steeping, seeds with 3.2 ppm DON) is reported as 0.7 ppm, the “DON levels on "H" process (b)” value ([3]; 2. After the second steeping) is reported as 0.4 ppm and the “DON levels on "H" process (b)” value ([3]; 3. Second day of malting) is reported as 0.4 ppm. The “DON levels on "H" process (b)” value ([3]; 4. Fourth day of malting) was 0.4 ppm, the “DON levels on "H" process (b)” value ([3]; 5. Fist step of kilning) was 0.3 ppm and the “DON levels on "H" process (b)” value ([3]; 6. Second step of kilning) was 0.3 ppm. For the same compound, the “DON levels on "H" process (b)” value ([3]; 7. Third step of kilning) was 0.4 ppm, the “% DON reduction” value ([3]; 1. After the first steeping) was 78.1% and the “% DON reduction” value ([3]; 2. After the second steeping) was 87.5%. For the same compound, the “% DON reduction” value ([3]; 3. Second day of malting) was 87.5%, the “% DON reduction” value ([3]; 4. Fourth day of malting) was 87.5% and the “% DON reduction” value ([3]; 5. Fist step of kilning) was 90.6%. The “% DON reduction” value ([3]; 6. Second step of kilning) was 90.6%, the “% DON reduction” value ([3]; 7. Third step of kilning) was 87.5% and the “Fusarium reduction from seeds” value (Fusarium) was at most 50%.
For `[Na+].[OH-]` [NaOH 0.1%, sodium hydroxide], the “Germin. (%)” value (barley seeds) was 76%, the “Fusarium (%)” value (Fusarium graminearum) was 76% and the “Bacteria (%)” value (bacteria) was 74%.
For `OCl` [Hypochlorite 0.8%, hypochlorite], the “% Germination” value (barley seeds) was 88%, the “Germin. (%)” value (barley seeds) was 80% and the “Fusarium (%)” value (Fusarium graminearum; Table 4, 8 hours steeping) was 2%. The “% Fusarium” value (Fusarium graminearum; [4]) was 8%, the “% of Fusarium graminearum” value (Fusarium graminearum; 2 min. disinfestations) was 20% and the “% of Fusarium graminearum” value (Fusarium graminearum; 3 min. disinfestations) was 18%. For the same compound, the “% Bacteria” value (bacteria) was 0%, the “Bacteria (%)” value (bacteria) was 2% and the “Total % of DON reduction” value ([1]; Table 4) was 87.6%. For the same compound, the DON ([1]; Table 4, dry seeds 9.7) was 1.2 µg/mL, the “% of Alternaria spp.” value (Alternaria spp.; 2 min. disinfestations) was 66% and the “% of Alternaria spp.” value (Alternaria spp.; 3 min. disinfestations) was 68%.
With `O=P([O-])([O-])O.[Na+].[Na+]` [Na2HPO4 (0.5%), sodium phosphate dibasic] the “% Germination” value (barley seeds) was 94%, the “% Fusarium” value (Fusarium graminearum; [4]) was 70% and the “% Bacteria” value (bacteria) was 72%.
